Test [1] in a line: Inhibition of HCV genotype 1b NS5A infected in HuH-7-Luc/Neo-ET cells assessed as reduction in viral replication measured by Luciferase reporter gene assay. In general terms: Reporter assays use an easily measured gene product as a stand-in for the process of interest.
Test [2] in a line: Inhibition of HCV genotype 1a NS5A infected in HuH-7-Luc/Neo-ET cells assessed as reduction in viral replication measured by Luciferase reporter gene assay.

The EC50 is the concentration at which the effect is half-maximal.

For `COC(=O)N[C@H]1CCC[C@H]2CC[C@@H](c3ncc(-c4ccc(-c5ccc(-c6cnc([C@@H]7CCCN7C(=O)[C@@H](NC(=O)OC)C(C)C)[nH]6)cc5)cc4)[nH]3)N2C1=O`, the EC50 in test [1] is 0.109 nM; in test [2], 17 nM.
For `COC(=O)N[C@H](C(=O)N1CCC[C@H]1c1ncc(-c2ccc(-c3ccc(-c4cnc([C@@H]5CC[C@@H]6CCC[C@@H](NC(=O)OC)C(=O)N65)[nH]4)cc3)cc2)[nH]1)C(C)C` the same measures were 0.133 nM and 12 nM.
On the same counts, the results for `COC(=O)N[C@H](C(=O)N1CCC[C@H]1c1ncc(-c2ccc(-c3ccc(-c4cnc([C@@H]5CC[C@H]6CCC[C@@H](NC(=O)OC)C(=O)N65)[nH]4)cc3)cc2)[nH]1)C(C)C` are 0.059 nM and 0.673 nM.
For `COC(=O)N[C@H]1CCC[C@@H]2CC[C@@H](c3ncc(-c4ccc(-c5ccc(-c6cnc([C@@H]7CCCN7C(=O)[C@@H](NC(=O)OC)C(C)C)[nH]6)cc5)cc4)[nH]3)N2C1=O` the same measures were 0.037 nM and 0.471 nM.
For `COC(=O)N[C@H]1CCC[C@H]2CC[C@@H](c3ncc(-c4ccc(-c5ccc(-c6cnc([C@@H]7CC8(CN7C(=O)[C@@H](NC(=O)OC)C(C)C)OCCO8)[nH]6)cc5)cc4)[nH]3)N2C1=O`, the concentration for a half-maximal effect (EC50) came to 0.046 nM in test [1] and 8.6 nM in test [2].
On the same counts, the results for `COC(=O)N[C@H](C(=O)N1CC2(C[C@H]1c1ncc(-c3ccc(-c4ccc(-c5cnc([C@@H]6CC[C@@H]7CCC[C@@H](NC(=O)OC)C(=O)N76)[nH]5)cc4)cc3)[nH]1)OCCO2)C(C)C` are 0.08 nM and 15 nM.
For `COC(=O)N[C@H](C(=O)N1CC2(C[C@H]1c1ncc(-c3ccc(-c4ccc(-c5cnc([C@@H]6CC[C@H]7CCC[C@@H](NC(=O)OC)C(=O)N76)[nH]5)cc4)cc3)[nH]1)OCCO2)C(C)C` the same measures were 0.047 nM and 0.707 nM.
On the same counts, the results for `COC(=O)N[C@H]1CCC[C@@H]2CC[C@@H](c3ncc(-c4ccc(-c5ccc(-c6cnc([C@@H]7CC8(CN7C(=O)[C@@H](NC(=O)OC)C(C)C)OCCO8)[nH]6)cc5)cc4)[nH]3)N2C1=O` are 0.064 nM and 1.5 nM.
For `COC(=O)N[C@H](C(=O)N1CC2(C[C@H]1c1ncc(-c3ccc(-c4ccc(-c5cnc([C@@H]6CC[C@@H]7CCC[C@H](N(C)C)C(=O)N76)[nH]5)cc4)cc3)[nH]1)OCCO2)C(C)C`, the EC50 came out at 0.209 nM in test [1] and 32 nM in test [2].
For `COC(=O)N[C@H](C(=O)N1CC2(C[C@H]1c1ncc(-c3ccc(-c4ccc(-c5cnc([C@@H]6CC[C@@H]7CCC[C@@H](N(C)C)C(=O)N76)[nH]5)cc4)cc3)[nH]1)OCCO2)C(C)C` the same measures were 0.217 nM and 119 nM.
For `COC(=O)N[C@H](C(=O)N1CC2(C[C@H]1c1ncc(-c3ccc(-c4ccc(-c5cnc([C@@H]6CC[C@H]7CCC[C@@H](N(C)C)C(=O)N76)[nH]5)cc4)cc3)[nH]1)OCCO2)C(C)C` the same measures were 0.298 nM and 11 nM.
On the same counts, the results for `COC(=O)N[C@H](C(=O)N1CC2(C[C@H]1c1ncc(-c3ccc(-c4ccc(-c5cnc([C@@H]6CC[C@H]7CCC[C@H](N(C)C)C(=O)N76)[nH]5)cc4)cc3)[nH]1)OCCO2)C(C)C` are 0.084 nM and 7.7 nM.
With `COC(=O)N[C@H](C(=O)N1CCC[C@H]1c1nc(-c2ccc(-c3ccc(-c4c[nH]c([C@@H]5CCCN5C(=O)[C@@H](NC(=O)OC)C(C)C)n4)cc3)cc2)c[nH]1)C(C)C` [BMS-790052], the EC50 in test [1] was found to be 0.032 nM; in test [2] it was 0.079 nM.
